# Laboratory results from patent US9708314B2, “Heterocyclic amide compound” (NISSAN CHEMICAL INDUSTRIES, LTD., priority 2013, dated 2017).
# How the values were obtained:
# Format in all cases: in vivo
# Zea mays = experiment: Test Example 4: effect on crop by application to foliage (diluvial soil, plastic box); settings: application to foliage, 320 g/ha
# Method in brief: (§1)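 Greenhouse plants (25° C. to 30° C., 14 d, diluvial soil) receive a foliar spray of water-diluted emulsifiable formulation at defined g/ha. Grading after 3 weeks uses a six-step herbicidal-ratio scale, with 4 covering 70% to <90% and 1 covering 5% to <20%.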
# Triticum aestivum = experiment: as above; settings: application to foliage, 320 g/ha
# Method in brief: as §1
# Brassica campestris L. = experiment: as above; settings: application to foliage, 320 g/ha
# Method in brief: as §1
# Glycine max = experiment: as above; settings: application to foliage, 320 g/ha
# Method in brief: as §1
# [1] = system: Beta vulgaris ssp. vulgaris; experiment: as above; settings: application to foliage, 320 g/ha
# Method in brief: as §1
# [2] = system: directly sowed Oryza sativa; experiment: as above; settings: application to foliage, 320 g/ha
# Method in brief: as §1
# [3] = system: transplanted Oryza sativa; experiment: Test Example 1: effect on crop, application before weed generation in submerged conditions; settings: Seventeenth Table; application herbicide amount 320 g/ha
# Method in brief: (§2)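 Water-diluted emulsion formulation is applied onto flood water (4 cm deep) covering alluvial soil on the day weed seeds are sown, after transplanting 2.5 leaf stage rice. Rates are expressed per hectare. Injury or control is graded 0–5 three weeks later.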
# [4] = system: Echinochloa oryzacola Vasing.; experiment: Test Example 1: herbicidal activity, application before weed generation in submerged conditions; settings: Seventeenth Table; application herbicide amount 320 g/ha
# Method in brief: as §2
# Scirpus juncoides = experiment: as above; settings: Seventeenth Table; application herbicide amount 320 g/ha
# Method in brief: as §2
# Monochoria vaginalis = experiment: as above; settings: Seventeenth Table; application herbicide amount 320 g/ha
# Method in brief: as §2
SMILES,"effect on crop, b (Zea mays) (Zea mays)","effect on crop, e (Triticum aestivum) (Triticum aestivum)","effect on crop, g (Brassica campestris L.) (Brassica campestris L.)","effect on crop, c (Glycine max) (Glycine max)","effect on crop, f (Beta vulgaris ssp. vulgaris) [1]","effect on crop, d (directly sowed Oryza sativa) [2]",a (transplanted Oryza sativa) effect on crop grade [3],A (Echinochloa oryzicola Vasing.) herbicidal ratio grade [4],B (Scirpus juncoides) herbicidal ratio grade (Scirpus juncoides),C (Monochoria vaginalis) herbicidal ratio grade (Monochoria vaginalis)
C=CCSc1nnc2c(C(=O)Nc3nnnn3C)ccc(C(F)(F)F)n12 [2-102],1 (Herbicidal ratio of 5% or more and less than 20%),1 (Herbicidal ratio of 5% or more and less than 20%),3 (Herbicidal ratio of 40% or more and less than 70%),0 (Herbicidal ratio of 5% or less (almost no effect)),5 (Herbicidal ratio of 90% or more (almost completely withered)),4 (Herbicidal ratio of 70% or more and less than 90%),1 (Herbicidal ratio of 5% or more and less than 20%),5 (Herbicidal ratio of 90% or more (almost completely withered)),5 (Herbicidal ratio of 90% or more (almost completely withered)),4 (Herbicidal ratio of 70% or more and less than 90%)
C#CCSc1nnc2c(C(=O)Nc3nnnn3C)ccc(C(F)(F)F)n12 [2-103],2 (Herbicidal ratio of 20% or more and less than 40%),0 (Herbicidal ratio of 5% or less (almost no effect)),3 (Herbicidal ratio of 40% or more and less than 70%),0 (Herbicidal ratio of 5% or less (almost no effect)),5 (Herbicidal ratio of 90% or more (almost completely withered)),4 (Herbicidal ratio of 70% or more and less than 90%),3 (Herbicidal ratio of 40% or more and less than 70%),5 (Herbicidal ratio of 90% or more (almost completely withered)),4 (Herbicidal ratio of 70% or more and less than 90%),5 (Herbicidal ratio of 90% or more (almost completely withered))
CC#Cc1nnc2c(C(=O)Nc3nnnn3C)ccc(C(F)(F)F)n12 [2-106],0 (Herbicidal ratio of 5% or less (almost no effect)),0 (Herbicidal ratio of 5% or less (almost no effect)),3 (Herbicidal ratio of 40% or more and less than 70%),0 (Herbicidal ratio of 5% or less (almost no effect)),5 (Herbicidal ratio of 90% or more (almost completely withered)),4 (Herbicidal ratio of 70% or more and less than 90%),2 (Herbicidal ratio of 20% or more and less than 40%),5 (Herbicidal ratio of 90% or more (almost completely withered)),3 (Herbicidal ratio of 40% or more and less than 70%),4 (Herbicidal ratio of 70% or more and less than 90%)
CC(=O)OCc1nnc2c(C(=O)Nc3nnnn3C)ccc(C(F)(F)F)n12 [2-107],3 (Herbicidal ratio of 40% or more and less than 70%),0 (Herbicidal ratio of 5% or less (almost no effect)),4 (Herbicidal ratio of 70% or more and less than 90%),0 (Herbicidal ratio of 5% or less (almost no effect)),5 (Herbicidal ratio of 90% or more (almost completely withered)),5 (Herbicidal ratio of 90% or more (almost completely withered)),1 (Herbicidal ratio of 5% or more and less than 20%),2 (Herbicidal ratio of 20% or more and less than 40%),3 (Herbicidal ratio of 40% or more and less than 70%),2 (Herbicidal ratio of 20% or more and less than 40%)
Cn1nnnc1NC(=O)c1ccc(C(F)(F)F)n2c(CO)nnc12 [2-108],4 (Herbicidal ratio of 70% or more and less than 90%),1 (Herbicidal ratio of 5% or more and less than 20%),5 (Herbicidal ratio of 90% or more (almost completely withered)),0 (Herbicidal ratio of 5% or less (almost no effect)),5 (Herbicidal ratio of 90% or more (almost completely withered)),4 (Herbicidal ratio of 70% or more and less than 90%),0 (Herbicidal ratio of 5% or less (almost no effect)),4 (Herbicidal ratio of 70% or more and less than 90%),3 (Herbicidal ratio of 40% or more and less than 70%),2 (Herbicidal ratio of 20% or more and less than 40%)
Cn1nnnc1NC(=O)c1ccc(C(F)(F)F)n2c(C3(C)CC3(Cl)Cl)nnc12 (stereo not drawn) [2-110],4 (Herbicidal ratio of 70% or more and less than 90%),3 (Herbicidal ratio of 40% or more and less than 70%),4 (Herbicidal ratio of 70% or more and less than 90%),0 (Herbicidal ratio of 5% or less (almost no effect)),5 (Herbicidal ratio of 90% or more (almost completely withered)),4 (Herbicidal ratio of 70% or more and less than 90%),4 (Herbicidal ratio of 70% or more and less than 90%),5 (Herbicidal ratio of 90% or more (almost completely withered)),5 (Herbicidal ratio of 90% or more (almost completely withered)),5 (Herbicidal ratio of 90% or more (almost completely withered))
Cn1nnnc1NC(=O)c1ccc(C(F)(F)F)n2c(=O)n(C)nc12 [6-002],0 (Herbicidal ratio of 5% or less (almost no effect)),0 (Herbicidal ratio of 5% or less (almost no effect)),3 (Herbicidal ratio of 40% or more and less than 70%),0 (Herbicidal ratio of 5% or less (almost no effect)),3 (Herbicidal ratio of 40% or more and less than 70%),3 (Herbicidal ratio of 40% or more and less than 70%),0 (Herbicidal ratio of 5% or less (almost no effect)),4 (Herbicidal ratio of 70% or more and less than 90%),3 (Herbicidal ratio of 40% or more and less than 70%),2 (Herbicidal ratio of 20% or more and less than 40%)
CCn1nc2c(C(=O)Nc3nnnn3C)ccc(C(F)(F)F)n2c1=O [6-004],0 (Herbicidal ratio of 5% or less (almost no effect)),1 (Herbicidal ratio of 5% or more and less than 20%),3 (Herbicidal ratio of 40% or more and less than 70%),0 (Herbicidal ratio of 5% or less (almost no effect)),2 (Herbicidal ratio of 20% or more and less than 40%),4 (Herbicidal ratio of 70% or more and less than 90%),0 (Herbicidal ratio of 5% or less (almost no effect)),0 (Herbicidal ratio of 5% or less (almost no effect)),0 (Herbicidal ratio of 5% or less (almost no effect)),2 (Herbicidal ratio of 20% or more and less than 40%)
Cc1nnc(NC(=O)c2ccc(C(F)(F)F)n3nc(C(C)C)nc23)o1 [7-001],0 (Herbicidal ratio of 5% or less (almost no effect)),0 (Herbicidal ratio of 5% or less (almost no effect)),0 (Herbicidal ratio of 5% or less (almost no effect)),0 (Herbicidal ratio of 5% or less (almost no effect)),0 (Herbicidal ratio of 5% or less (almost no effect)),0 (Herbicidal ratio of 5% or less (almost no effect)),0 (Herbicidal ratio of 5% or less (almost no effect)),0 (Herbicidal ratio of 5% or less (almost no effect)),2 (Herbicidal ratio of 20% or more and less than 40%),4 (Herbicidal ratio of 70% or more and less than 90%)
